From the Kinase Knowledgebase extract (Sharma et al. 2016)

target: EGFR (UniProt P00533)
Sequence (P00533 whole entry, looked up): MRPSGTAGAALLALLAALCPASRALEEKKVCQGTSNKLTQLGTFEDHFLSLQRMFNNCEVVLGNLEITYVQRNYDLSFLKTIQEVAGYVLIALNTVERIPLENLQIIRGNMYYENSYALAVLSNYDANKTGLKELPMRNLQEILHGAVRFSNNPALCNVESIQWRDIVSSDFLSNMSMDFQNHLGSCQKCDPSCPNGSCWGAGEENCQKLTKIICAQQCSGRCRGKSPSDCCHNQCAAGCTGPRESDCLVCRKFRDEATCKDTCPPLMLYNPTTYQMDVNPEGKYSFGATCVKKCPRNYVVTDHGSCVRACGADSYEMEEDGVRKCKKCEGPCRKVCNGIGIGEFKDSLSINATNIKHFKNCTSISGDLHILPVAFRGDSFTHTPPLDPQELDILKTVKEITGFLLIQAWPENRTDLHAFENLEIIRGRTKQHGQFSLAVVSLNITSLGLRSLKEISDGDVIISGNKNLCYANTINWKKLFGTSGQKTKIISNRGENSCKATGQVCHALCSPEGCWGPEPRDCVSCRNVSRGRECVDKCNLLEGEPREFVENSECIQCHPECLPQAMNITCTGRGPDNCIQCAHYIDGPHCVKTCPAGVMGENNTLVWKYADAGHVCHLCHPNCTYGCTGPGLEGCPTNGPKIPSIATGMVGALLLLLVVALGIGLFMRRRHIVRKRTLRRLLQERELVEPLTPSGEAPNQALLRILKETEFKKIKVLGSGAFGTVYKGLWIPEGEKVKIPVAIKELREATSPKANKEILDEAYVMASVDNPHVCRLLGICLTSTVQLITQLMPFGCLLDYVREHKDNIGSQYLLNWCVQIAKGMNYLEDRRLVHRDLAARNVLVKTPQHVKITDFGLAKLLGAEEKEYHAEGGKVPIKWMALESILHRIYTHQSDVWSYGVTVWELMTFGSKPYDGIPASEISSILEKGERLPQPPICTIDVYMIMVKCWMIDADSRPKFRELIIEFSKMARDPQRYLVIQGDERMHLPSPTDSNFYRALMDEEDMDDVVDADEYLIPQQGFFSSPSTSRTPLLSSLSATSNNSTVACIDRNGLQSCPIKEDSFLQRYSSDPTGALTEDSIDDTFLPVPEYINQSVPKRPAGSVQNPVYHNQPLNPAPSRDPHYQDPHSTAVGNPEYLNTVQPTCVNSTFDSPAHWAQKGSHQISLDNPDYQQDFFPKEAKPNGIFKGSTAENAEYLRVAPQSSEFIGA

Row | Compound | IC50 [µM]
1 | COc1cc2c(Nc3ccc(Br)c(Cl)c3F)ncnc2cc1OC[C@H]1C[C@@H]2CN(C)C[C@@H]2C1 | < 0.05
2 | COc1cc2c(Nc3ccc(Cl)c(Cl)c3)ncnc2cc1OCc1csc(COC(=O)c2ccccc2)n1 | < 0.05
3 | COc1cc2c(Nc3ccc(Cl)c(Cl)c3)ncnc2cc1OCc1csc(N(C)C)n1 | < 0.05
4 | COc1cc2c(Nc3ccc(Cl)c(Cl)c3)ncnc2cc1OCC1CN(C(C)=O)CCCO1 (centres undefined) | < 0.05
5 | COc1cc2c(Nc3ccc(Br)c(Cl)c3)ncnc2cc1O[C@H]1CO[C@@H]2[C@H]1OC[C@@H]2N1CCOCC1 | < 0.05
6 | CC[C@@H](C)CN1CCOC(COc2cc3ncnc(Nc4ccc(Cl)c(Cl)c4)c3cc2OC)C1 (some centres undefined) | < 0.05
7 | COc1cc2c(Nc3c(F)cccc3F)ncnc2cc1O[C@@H]1CO[C@@H]2[C@H]1OC[C@H]2F | < 0.05
8 | COc1cc2c(Nc3ccc(Cl)c(Cl)c3)ncnc2cc1OCc1noc(C2CCN(C(=O)OC(C)(C)C)CC2)n1 | < 0.05
9 | COc1cc2c(Nc3cc(Cl)ccc3F)ncnc2cc1O[C@@H]1CO[C@@H]2[C@H]1OC[C@H]2F | < 0.05
10 | COc1cc2c(Nc3cc(F)c(Br)c(Cl)c3)ncnc2cc1O[C@@H]1CO[C@@H]2[C@H]1OC[C@H]2F | < 0.05
11 | COC(=O)CCN1CCOC(COc2cc3ncnc(Nc4ccc(Cl)c(Cl)c4)c3cc2OC)C1 (centres undefined) | < 0.05
12 | COc1cc2c(Nc3c(F)cc(F)cc3F)ncnc2cc1O[C@@H]1CO[C@@H]2[C@H]1OC[C@H]2F | < 0.05
13 | COCCN1CCOC(COc2cc3ncnc(Nc4ccc(Cl)c(Cl)c4)c3cc2OC)C1 (centres undefined) | < 0.05
14 | COc1cc2c(Nc3ccc(Br)c(Cl)c3F)ncnc2cc1OC[C@@H]1CN(C)CC(=O)N1 | < 0.05
15 | COc1cc2c(Nc3ccc(Cl)c(Br)c3)ncnc2cc1OCC1CN(C)CCO1 (centres undefined) | < 0.05
16 | COc1cccc(CC(=O)N2CCOC(COc3cc4ncnc(Nc5ccc(Cl)c(Cl)c5)c4cc3OC)C2)c1 (centres undefined) | < 0.05
17 | COc1cc2c(Nc3ccc(Cl)c(Cl)c3)ncnc2cc1OCC1CN(CCC(C)C)CCCO1 (centres undefined) | < 0.05
18 | COc1cc2c(Nc3ccc(Cl)c(Cl)c3)ncnc2cc1OCC1CN(CC2CCCCC2)CCO1 (centres undefined) | < 0.05
19 | COc1cc2c(Nc3ccccc3Br)ncnc2cc1O[C@@H]1CO[C@@H]2[C@H]1OC[C@H]2F | < 0.05
20 | COc1cc2c(Nc3cc(Cl)c(Cl)cc3F)ncnc2cc1O[C@@H]1CO[C@@H]2[C@H]1OC[C@H]2F | < 0.05
21 | COc1cc2c(Nc3ccc(F)cc3Cl)ncnc2cc1O[C@@H]1CO[C@@H]2[C@H]1OC[C@H]2F | < 0.05
22 | COc1cc2c(Nc3ccc(Cl)c(Cl)c3)ncnc2cc1OCC1CN(CCCCF)CCO1 (centres undefined) | < 0.05
23 | CCN1CCCOC(COc2cc3ncnc(Nc4ccc(Cl)c(Cl)c4)c3cc2OC)C1 (centres undefined) | < 0.05
24 | CCO[C@H]1CO[C@H]2[C@@H]1OC[C@@H]2Oc1cc2ncnc(Nc3ccc(Br)c(Cl)c3)c2cc1OC | < 0.05
25 | COc1cc2c(Nc3c(F)cc(F)cc3Br)ncnc2cc1O[C@@H]1CO[C@@H]2[C@H]1OC[C@H]2F | < 0.05

Row | Compound | IC50 [µM]
26 | COc1cc2c(Nc3ccc(Cl)c(Cl)c3)ncnc2cc1OC1CCCC1 | < 0.05
27 | COc1cc2c(Nc3cccc(Cl)c3F)ncnc2cc1O[C@@H]1CO[C@@H]2[C@H]1OC[C@H]2F | < 0.05
28 | COc1cc2c(Nc3ccc(Cl)c(Cl)c3)ncnc2cc1OCc1nccn1Cc1ccccc1 | < 0.05
29 | COc1cc2c(Nc3ccc(Br)cc3F)ncnc2cc1OCC1CN(C)CCO1 (centres undefined) | < 0.05
30 | COc1cc2c(Nc3ccc(Br)cc3Cl)ncnc2cc1OCC1CN(C)CCO1 (centres undefined) | < 0.05
31 | COc1cc2c(Nc3ccc(Br)c(C)c3)ncnc2cc1OCC1CN(C)CCO1 (centres undefined) | < 0.05
32 | COc1cc2c(Nc3cc(Cl)c(Cl)cc3F)ncnc2cc1OC[C@H]1C[C@@H]2CN(C)C[C@@H]2C1 | < 0.05
33 | CCOC(=O)C(C)N1CCOC(COc2cc3ncnc(Nc4ccc(Cl)c(Cl)c4)c3cc2OC)C1 (centres undefined) | < 0.05
34 | COc1cc2c(Nc3ccc(C)c(Cl)c3Cl)ncnc2cc1OCC1CN(C)CCO1 (centres undefined) | < 0.05
35 | CCC(CC)CN1CCCOC(COc2cc3ncnc(Nc4ccc(Cl)c(Cl)c4)c3cc2OC)C1 (centres undefined) | < 0.05
36 | COc1cc2c(Nc3ccc(Cl)c(Cl)c3)ncnc2cc1OCC1CN(CC2CCCCO2)CCO1 (centres undefined) | < 0.05
37 | COCCOc1cc2c(Nc3ccc(Cl)c(Cl)c3)ncnc2cc1OCC1CN(C)CCO1 (centres undefined) | < 0.05
38 | COc1cc2c(Nc3ccc(Br)c(Cl)c3F)ncnc2cc1OCC1CO[C@@H]2[C@@H](OC)CO[C@H]12 (some centres undefined) | < 0.05
39 | COc1cc2c(Nc3ccc(Cl)c(Cl)c3)ncnc2cc1OCc1csc(CO)n1 | < 0.05
40 | COc1cc2c(Nc3ccc(Cl)c(Cl)c3)ncnc2cc1OCC1CN(CC2CCCCC2)CCCO1 (centres undefined) | < 0.05
41 | COc1cc2c(Nc3cc(Cl)c(Br)cc3F)ncnc2cc1O[C@H]1CO[C@H]2[C@@H]1OC[C@@H]2OC | < 0.05
42 | COc1cc2c(Nc3ccc(Br)c(Cl)c3Cl)ncnc2cc1OCC1CN(C)C(C)(C)CO1 (centres undefined) | < 0.05
43 | COc1cc2c(Nc3ccc(Cl)c(Cl)c3F)ncnc2cc1O[C@@H]1CO[C@@H]2[C@H]1OC[C@H]2F | < 0.05
44 | COc1cc2c(Nc3ccc(F)c(Cl)c3F)ncnc2cc1O[C@H]1CO[C@H]2[C@@H]1OC[C@@H]2OC | < 0.05
45 | COc1cc2c(Nc3ccc(Cl)c(Cl)c3)ncnc2cc1OCc1csc(C2CCCNC2)n1 (centres undefined) | < 0.05
46 | COc1cc2c(Nc3ccc(Cl)c(Cl)c3)ncnc2cc1OCC1CN(S(=O)(=O)CCCCl)CCO1 (centres undefined) | < 0.05
47 | CCN1CCC(c2nc(COc3cc4ncnc(Nc5ccc(Cl)c(Cl)c5)c4cc3OC)no2)CC1 | < 0.05
48 | COc1cc2c(Nc3ccc(Cl)c(Cl)c3)ncnc2cc1OCc1nc(N2CCN(C(=O)OC(C)(C)C)CC2)no1 | < 0.05
49 | COc1cc2c(Nc3cc(Cl)ccc3F)ncnc2cc1OCC1CN(C)CCO1 (centres undefined) | < 0.05
